# Measurements reported in patent US20190350955A1, “METHODS AND PHARMACEUTICAL COMPOSITIONS FOR THE TREATMENT OF CARDIOMYOPATHIES” (INSERM (Institut National de la Sante et de la Recherche …, priority 2016, published 2019).
# System: Nmrk2 promoter
# Experiment: Nmrk2 promoter luciferase reporter assay in NRC
# Type: cell-based, rat
# Details: for Nmrk2 promoter induction by AICAR: NRC, p3009-Luc, antagonist added 30 minutes before AICAR for 24 h; for activity of the Nmrk2 promoter (p3009-Luc): NRC co-transfected with PPARα and RXR expression vectors
# Procedure: Isolation and Treatments of Neonatal Rat Cardiomyocytes (NRC) NRC were isolated as described previously (Diguet et al., 2011). 1-day-old rat pups were killed by decapitation and the cardiac ventricles were harvested and minced into 1 to 2-mm wide cubes with scissors. After washing with Tyrode solution, heart fragments were subjected up to 10 rounds of digestion with 0.05 mg/ml of Liberase Blendzyme 4 (Roche Applied Science) in 10 ml oxygenated Tyrode solution under agitation at 37° C. for 10 minutes. The supernatant of the first digestion was discarded and the following digestions were centrifuged and the cell pellet dissociated in 2 ml of DMEM, 10% FCS. The different fractions were pooled and centrifuged on a discontinuous Percoll gradient (bottom 58.5%. top 40.5%. 30 min. 3000 rpm) to enrich in cardiomyocytes at the interface between the 2 Percoll solutions. Non cardiac cells containing mainly fibroblasts were at the top of the tubes. Neonatal cardiomyocytes were seeded at a density 5×10^5 cells/well in 6-well plates coated with 10 μg/ml of laminin (BD Biosciences) in DMEM without pyruvate, with glucose 4.5 g/l, 10% horse serum, 5% FCS and cultured at 37° C. in 1% CO, atmosphere. To assay the impact on NAD^+ and Nmrk2 expression, Azaserin and FK866 drugs were added in the culture medium at day 5 and renewed everyday when the treatment was prolonged over several days. The same was done for NAD^+, NR and AICAR (5-aminoimidazole-4-carboxamide-1-β-D-ribofuranoside). AICAR was administrated for 24 h only. Doses are indicated in the legends. For treatment of transfected cells (see next section), AICAR, FK866 and PPAR agonists and antagonist were administrated 1 day after transfection. PPAR agonists: GW7647 for PPARα, GW501516 for PPARβ/δ and GW1929 for PPARγ; PPAR antagonists: GW6471 PPARα, GSK3787 for PPARβ/δ and GW9662 for PPARγ were ordered from SIGMA ALDRICH CHIMIE, Saint Quentin Fallavier, France.
# The transcription initiation site of mouse Nmrk2 promoter was determined by 5′RACE and was conform to the reported site in the Genebank (NM_027120.2). The promoter of the mouse Nmrk2 gene was cloned from C57B16/N genomic DNA by PCR, and inserted into a pGL4.10[luc2] luciferase reporter plasmid (Promega prod no E6651). Subsequent deletions were performed by enzymatic digestion or primer mediated subcloning of the original fragment. 2.5×10^5 cardiomyocytes in 12-well plates were co-transfected at day 2 of culture with 1 μg of Nmrk2 pGL4.10[luc2] constructs and 100 ng of pGL4.73[hRluc/SV40] Vector (Promega prod no E6911) as an internal control of transfection efficiency using Lipofectamine 2000 (Lifetechnology) as indicated by the supplier. In the case of AICAR treatment, Luciferase activity was analyzed 48 h later with the Dual-Luciferase Assay System (Promega).
# The pcDNA3 vectors harboring dominant negative AMPK, PPARα, PPARβ and PPARγ as well as RXR genes were kindly provided by Pr. Michel Raymondjean (El Hadri et al. (2015). AMPK Signaling Involvement for the Repression of the IL-1beta-Induced Group IIA Secretory Phospholipase A2 Expression in VSMCs. Journal 10, e0132498; Ravaux et al. (2007). Inhibition of interleukin-1 beta-induced group 11A secretory phospholipase A2 expression by peroxisome proliferator-activated receptors (PPARs) in rat vascular smooth muscle cells: cooperation between PPARbeta and the proto-oncogene BCL-6. Journal 27, 8374-8387; Woods et al. (2000). Characterization of the role of AMP-activated protein kinase in the regulation of glucose-activated gene expression using constitutively active and dominant negative forms of the kinase. Journal 20, 6704-6711). These vectors were cotransfected at a dose of 100 ng/well in 24-well plates with 500 ng of Nmrk2 luciferase constructs.
smiles,measurement,setting,value
O=C(NCCS(=O)(=O)c1ccc(C(F)(F)F)cn1)c1ccc(Cl)cc1 [GSK3787],Nmrk2 promoter induction by AICAR,,Neither the PPARβ antagonist GSK3787 nor the PPARγ antagonist G9662 had any effect
CCC(=O)NC[C@H](Cc1ccc(OCCc2nc(-c3ccccc3)oc2C)cc1)N/C(C)=C\C(=O)c1ccc(C(F)(F)F)cc1 [G6471],activity of the Nmrk2 promoter (p3009-Luc),antagonist 10 μM,repressed
same,Nmrk2 promoter induction by AICAR,,blunted
CC(C)(Sc1ccc(CCN(CCCCC2CCCCC2)C(=O)NC2CCCCC2)cc1)C(=O)O [GW7647],activity of the Nmrk2 promoter (p3009-Luc),agonist 0.6 μM,increased
O=C(Nc1ccccc1)c1cc([N+](=O)[O-])ccc1Cl [G9662],Nmrk2 promoter induction by AICAR,,Neither the PPARβ antagonist GSK3787 nor the PPARγ antagonist G9662 had any effect
